In patent US20240376087A1, “PYRAZOLE AMIDE BASED COMPOUNDS AND USES AGAINST BREAST CANCER THEREOF” (COUNCIL OF SCIENTIFIC AND INDUSTRIAL RESEARCH AN INDIAN …, priority 2021, published 2024):
“Also recorded” adds a separate entry of the source.

Tested on: normal human lung fibroblast cells (WI 30)
Test: Toxicity in normal fibroblast cells (phase contrast images)
Type: cell-based
Conditions: normal fibroblast cells (WI30), FIG. 3
Protocol: The cells used for the study, human breast adenocarcinoma (MDA-MB-231) and normal human lung fibroblast cells ([…]) were procured from NCCS, Pune, India, and ATCC, VA, USA, respectively. Cells were maintained in standard culture conditions in DMEM supplemented with 10% FBS and 100 units/ml penicillin/streptomycin under 5% CO2 at 37° C. in a humidified incubator. After 2-3 passages, the cells were seeded on cell culture dishes and were used for different experiments.
Morphological analysis of the cells treated with NIIST-AC-1 at different concentrations were monitored using phase contrast microscope Nikon EclipseTS100 (Nikon Instruments Inc., Melville, NY, USA, Magnification 20×) and SEM (Zeiss EVO 18 Special Edition) at ×2k and ×5k magnification.

SMILES: COc1cc(-c2cc(C(=O)NCc3cc(C(F)(F)F)cc(C(F)(F)F)c3)[nH]n2)cc(OC)c1OC [I-8, N-(3,5-bis(trifluoromethyl)benzyl)-3-(3,4,5-trimethoxyphenyl)-1H-pyrazole-5-carboxamide]
- cytotoxicity in normal fibroblasts: without having cytotoxicity; also recorded: no toxic
